# Biological target: T1, FKBP12(F36V)-ΔCASP9 fusion protein (Homo sapiens, UniProt P55211+P62942, F37V)
# T1 construct: expressed in transfected cells
# Experiment: Verification of screening cell lines: AP1903-induced death of cells expressing target protein-FKBP12(F36V)-ΔCASP9 fusion
# Type: cell-based
# Conditions: no target protein degradation agent present
# From the text: The screening system of the F-C fusion protein of the present invention can be applied to important targets of various diseases.
# T1 sequence (P62942+P55211 fused P62942:F37V): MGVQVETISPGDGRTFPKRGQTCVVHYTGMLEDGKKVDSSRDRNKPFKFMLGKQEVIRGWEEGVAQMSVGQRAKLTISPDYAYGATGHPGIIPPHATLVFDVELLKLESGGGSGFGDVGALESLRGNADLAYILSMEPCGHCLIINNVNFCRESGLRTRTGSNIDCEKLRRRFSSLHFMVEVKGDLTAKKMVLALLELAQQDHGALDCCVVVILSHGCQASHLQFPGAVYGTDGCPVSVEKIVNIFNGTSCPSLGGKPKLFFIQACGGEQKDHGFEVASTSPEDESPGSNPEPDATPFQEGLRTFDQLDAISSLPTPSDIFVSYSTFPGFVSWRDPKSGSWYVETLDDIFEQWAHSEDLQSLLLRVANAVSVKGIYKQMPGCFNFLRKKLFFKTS
compound,measurement,value
CC[C@H](C(=O)N1CCCC[C@H]1C(=O)O[C@H](CCc1ccc(OC)c(OC)c1)c1cccc(OCC(=O)NCCNC(=O)COc2cccc([C@@H](CCc3ccc(OC)c(OC)c3)OC(=O)[C@@H]3CCCCN3C(=O)[C@@H](CC)c3cc(OC)c(OC)c(OC)c3)c2)c1)c1cc(OC)c(OC)c(OC)c1 [AP1903],state of cells expressing target protein-FKBP12(F36V)-ΔCASP9 fusion after AP1903,cells are dead
